Reference: paper PMC11879280, “Antimicrobial activity of peptoids against Metallo-β-lactamase-producing Klebsiella pneumoniae, Acinetobacter baumannii, Pseudomonas aeruginosa, and other WHO priority pathogens, including Candida auris” (Journal of Applied Microbiology, 2025)
In brackets after ≈: the same amount, converted by molar mass.

Legend:
C. auris CBS12373 = test: Broth microdilution MIC; assay type: cell-based, Candida auris; conditions: CBS 12 373; for MIC against C. auris: RPMI 1640 with MOPS, 5 × 10^3 CFU ml^−1, ≥90% reduction (≥50% for fluconazole)
C. auris CBS 10913 [1] = test: microbe, parasite or virus in culture; assay type: cell-based, Candida auris; conditions: C. auris CBS 10913
Protocol: Amphotericin B was tested in parallel as a positive control (Ramesh et al. [2023]).

C. auris CBS10913 [2] = conditions: CBS 10 913; RPMI 1640 with MOPS, 5 × 10^3 CFU ml^−1; ≥90% reduction (≥50% for fluconazole)
C. auris CBS10913 [3] = test: microbe, parasite or virus in culture; conditions: Candidozyma auris, read-out: MIC against C. auris
C. auris CBS 10913 [4] = test: Sorbitol protection assay; assay type: cell-based, Candida auris; conditions: C. auris CBS 10913; sorbitol 0.8 mol l^−1 in RPMI, till 7 days
From the text: Caspofungin served as a positive control for the assay (Leite et al. [2014]).

S. aureus 38 = conditions: S. aureus 38; CAMHB, 37°C, 16–20 h
Protocol: (§1) Briefly, bacteria were suspended in cation-adjusted Mueller–Hinton broth (CAMHB; Oxoid, UK) for antibiotics, or MHB (Oxoid, UK) for peptidomimetics to obtain 5 × 10^5 colony forming unit (CFU) ml^−1. […] Positive controls contained only microbes, and blanks contained only media. Microbial suspensions (100 µl) were added to wells, plates wrapped, and incubated at 37°C, 120 rpm for 16–20 h. After incubation, suspensions were removed, log10 diluted, and plated on Trypticase Soya Agar with phosphatidylcholine and Tween 80 to determine minimum bactericidal or fungicidal concentration (MBC or MFC). […] Geometric mean MIC of the peptoids were calculated to evaluate the broad overview of antimicrobial activity across the pathogens.

S. aureus 04 = conditions: S. aureus 04; CAMHB, 37°C, 16–20 h
Protocol: as §1

S. aureus 117 = conditions: S. aureus 117; CAMHB, 37°C, 16–20 h
Protocol: as §1

S. aureus 105 = conditions: S. aureus 105; CAMHB, 37°C, 16–20 h
Protocol: as §1

K. pneumoniae JIE4212 = conditions: K. pneumoniae JIE4212; CAMHB, 37°C, 16–20 h
Protocol: as §1

E. coli 0010 = conditions: E. coli 0010; CAMHB, 37°C, 16–20 h
Protocol: as §1

En. cloacae 005 = conditions: En. cloacae 005; CAMHB, 37°C, 16–20 h
Protocol: as §1

E. coli 005 = conditions: E. coli 005; CAMHB, 37°C, 16–20 h
Protocol: as §1

[5] = test system: Enteroc. faecalis NCTC 13 379; conditions: Enteroc. faecalis NCTC 13 379; CAMHB, 37°C, 16–20 h
Protocol: as §1

E. coli 0011 = conditions: E. coli 0011; CAMHB, 37°C, 16–20 h
Protocol: as §1

K. pneumoniae JIE2709 = conditions: K. pneumoniae JIE2709; CAMHB, 37°C, 16–20 h
Protocol: as §1

E. coli 0015 = conditions: E. coli 0015; CAMHB, 37°C, 16–20 h
Protocol: as §1

K. pneumoniae JIE2713 = conditions: K. pneumoniae JIE2713; CAMHB, 37°C, 16–20 h
Protocol: as §1

En. cloacae 003 = conditions: En. cloacae 003; CAMHB, 37°C, 16–20 h
Protocol: as §1

En. cloacae 001 = conditions: En. cloacae 001; CAMHB, 37°C, 16–20 h
Protocol: as §1

C. auris CBS10913 [6] = test: Membrane integrity by flow cytometry (SYTO 9 / PI); assay type: cell-based, Candida auris; conditions: TM8 at its MIC or 1% Triton X-100, 90 min; PBS control 0.2%
Protocol: Afterwards, the cells were stained with SYTO 9 (7.5 µmol l^−1) and PI (30 µmol l^−1) for an additional 15 min in the dark at room temperature. Following washing, samples were then analysed for membrane integrity on a BD FACSymphony^TM A3, with a minimum of 10 000 events recorded per sample.

Compound | MIC of antibiotics (S. aureus 38) [µg/mL] | MIC of antibiotics (S. aureus 04) [µg/mL] | MIC of antibiotics (S. aureus 117) [µg/mL] | MIC of antibiotics (S. aureus 105) [µg/mL] | MIC of antibiotics [5] [µg/mL] | also measured
C[C@@H]1[C@H](O)[C@@H](C)/C=C/C=C/C=C/C=C/C=C/C=C/C=C/[C@H](O[C@@H]2O[C@H](C)[C@@H](O)[C@H](N)[C@@H]2O)C[C@@H]2O[C@](O)(C[C@@H](O)C[C@@H](O)[C@H](O)CC[C@@H](O)C[C@@H](O)CC(=O)O[C@H]1C)C[C@H](O)[C@H]2C(=O)O [Amphotericin B, reference compound] | – | – | – | – | – | MIC against C. auris (C. auris CBS12373): 0.25 µg/mL (≈ 0.271 µM); MIC (C. auris CBS12373; Candidozyma auris, value in brackets, read-out: MIC against C. auris): 0.27 µM (≈ 0.25 µg/mL); Increase in MIC with ergosterol (C. auris CBS 10913 [1]; ergosterol 200 µg ml^−1): five-fold; MIC (C. auris CBS 10913 [1]; Candidozyma auris, CBS10913, RPMI, read-out: MIC in the absence of ergosterol): 0.25 µg/mL (≈ 0.271 µM); MIC against C. auris (C. auris CBS10913 [2]): 0.25 µg/mL (≈ 0.271 µM); MIC (C. auris CBS10913 [3]): 0.27 µM (≈ 0.25 µg/mL)
CC[C@H](C)C[C@H](C)CCCCCCCCC(=O)N[C@H]1C[C@@H](O)[C@@H](NCCN)NC(=O)[C@@H]2[C@@H](O)CCN2C(=O)[C@H]([C@H](O)CCN)NC(=O)[C@H]([C@H](O)[C@@H](O)c2ccc(O)cc2)NC(=O)[C@@H]2C[C@@H](O)CN2C(=O)[C@H]([C@@H](C)O)NC1=O [Caspofungin, reference compound] | – | – | – | – | – | MIC against C. auris (C. auris CBS12373): 0.25 (228.7) µg ml^−1; MIC in the presence of sorbitol (C. auris CBS 10913 [4]): 1 µg/mL
CO/N=C(\C(=O)N[C@@H]1C(=O)N2C(C(=O)O)=C(COC(C)=O)CS[C@H]12)c1csc(N)n1 [Cefox, cefotaxime, reference compound] | 0.5 | 0.5 | 0.5 | 16 | – | –
O=C(N[C@H](CO)[C@H](O)c1ccc([N+](=O)[O-])cc1)C(Cl)Cl [Chl, chloramphenicol, reference compound] | 4 | 2 | 4 | 32 | 64 | MIC of antibiotics (K. pneumoniae JIE4212): 32 µg/mL; MIC of antibiotics (E. coli 0010): 8 µg/mL; MIC of antibiotics (En. cloacae 005): 32 µg/mL; MIC of antibiotics (E. coli 005): 8 µg/mL; MIC of antibiotics (E. coli 0011): 1 µg/mL; MIC of antibiotics (K. pneumoniae JIE2709): >32 µg/mL; MIC of antibiotics (E. coli 0015): 2 µg/mL; MIC of antibiotics (K. pneumoniae JIE2713): 32 µg/mL; MIC of antibiotics (En. cloacae 003): 32 µg/mL; MIC of antibiotics (En. cloacae 001): 32 µg/mL
CN[C@H](CC(C)C)C(=O)N[C@H]1C(=O)N[C@@H](CC(N)=O)C(=O)N[C@H]2C(=O)N[C@H]3C(=O)N[C@H](C(=O)N[C@H](C(=O)O)c4cc(O)cc(O)c4-c4cc3ccc4O)[C@H](O)c3ccc(c(Cl)c3)Oc3cc2cc(c3O[C@@H]2O[C@H](CO)[C@@H](O)[C@H](O)[C@H]2O[C@H]2C[C@](C)(N)[C@H](O)[C@H](C)O2)Oc2ccc(cc2Cl)[C@H]1O [Van, vancomycin, reference compound] | 1 | 1 | 4 | 1 | 32 | –
Triton X-100 [reference compound] | – | – | – | – | – | Dead cells (C. auris CBS10913 [6]): 27.3%

Now from value to compound, other results behind:

MIC of antibiotics (S. aureus 38) [µg/mL] | MIC of antibiotics (S. aureus 04) [µg/mL] | MIC of antibiotics (S. aureus 117) [µg/mL] | MIC of antibiotics (S. aureus 105) [µg/mL] | MIC of antibiotics [5] [µg/mL] | Compound | also measured
1 | 0.5 | 1 | 32 | 4 | CC[C@H]1OC(=O)[C@H](C)[C@@H](O[C@H]2C[C@@](C)(OC)[C@@H](O)[C@H](C)O2)[C@H](C)[C@@H](O[C@@H]2O[C@H](C)C[C@H](N(C)C)[C@H]2O)[C@](C)(O)C[C@@H](C)C(=O)[C@H](C)[C@@H](O)[C@]1(C)O [Ery, erythromycin, reference compound] | –
0.5 | 0.25 | 0.5 | 16 | 0.5 | CN(C)c1ccc(O)c2c1C[C@H]1C[C@H]3[C@H](N(C)C)C(O)=C(C(N)=O)C(=O)[C@@]3(O)C(O)=C1C2=O [Min, minocycline, reference compound] | –
16 | 16 | 16 | 32 | 4 | penicillin [reference compound] | –
